Reference: patent US11976072B2, “Diacylglycerol kinase modulating compounds” (priority 2021, dated 2024)
pEC50, pIC50: −log10 of the molar value.

Columns and labels:
[1] = biological target: human DGKα (Homo sapiens, UniProt P23743); test: DGKα Biochemical Activity Assay (ADP-Glo); settings: recombinant DGKα 1 nM, 100 μM ATP, 18:1 DAG/POPS/octylglucoside micelles, 1 hour at 25° C.; geometric mean; read-out: HTBS DGKa 1X ATP KM IC50;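 also: luminescent detection of ADP produced as DGKα phosphorylates DAG to phosphatidic acid, IC50 from four-parameter nonlinear curve fit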
Sequence of human DGKα (P23743 whole entry): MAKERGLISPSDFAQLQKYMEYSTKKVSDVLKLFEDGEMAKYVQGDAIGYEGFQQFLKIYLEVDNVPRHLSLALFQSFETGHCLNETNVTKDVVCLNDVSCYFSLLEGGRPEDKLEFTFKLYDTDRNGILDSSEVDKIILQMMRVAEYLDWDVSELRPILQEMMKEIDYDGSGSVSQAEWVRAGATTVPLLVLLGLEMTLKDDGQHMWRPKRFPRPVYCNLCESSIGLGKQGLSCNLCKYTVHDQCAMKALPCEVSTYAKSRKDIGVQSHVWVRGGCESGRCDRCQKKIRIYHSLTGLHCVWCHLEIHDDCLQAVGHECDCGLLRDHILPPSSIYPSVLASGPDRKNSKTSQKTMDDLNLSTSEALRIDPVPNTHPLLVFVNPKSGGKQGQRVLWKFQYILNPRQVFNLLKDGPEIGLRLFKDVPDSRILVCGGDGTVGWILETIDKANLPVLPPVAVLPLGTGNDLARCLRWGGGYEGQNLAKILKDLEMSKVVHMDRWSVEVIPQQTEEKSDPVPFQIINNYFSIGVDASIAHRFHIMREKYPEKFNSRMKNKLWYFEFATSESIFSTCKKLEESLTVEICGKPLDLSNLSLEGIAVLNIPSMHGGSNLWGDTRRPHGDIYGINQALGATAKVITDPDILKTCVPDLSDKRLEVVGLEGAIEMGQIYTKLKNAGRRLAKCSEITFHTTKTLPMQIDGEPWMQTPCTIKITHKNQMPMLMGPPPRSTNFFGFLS
Description: Alternatively, the enzymatic activity of human DGKα was monitored in a biochemical assay in the presence or absence of compounds and using micelles containing 18:1 Diacylglycerol (DAG), 16:0-18:1 PS (POPS) and Octylglucoside as substrate. DGKα activity led to conversion of DAG and ATP to Phosphatidic Acid (PA) and ADP. Levels of ADP were monitored by bioluminescence using the ADP-Glo Kinase Assay (Promega) and were indicative of DGKα activity.
Recombinant DGKα (Carna Biosciences) in assay buffer (5 μL in 50 mM MOPS [3-(N-morpholino) propanesulfonic acid], pH 7.2; 0.0025% Triton X-100; 1 mM dithiothreitol; 5 mM MgCl2, 200 μM ATP) was added to the compound-containing plate and was incubated for 15 minutes at 25° C. […] The reaction mixture was incubated at 25° C. for 1 hour. ADP-Glo Reagent (10 μL, 10 mM Mg added) provided by the kit was added to each well and incubated at 25° C. for 40 minutes. Then, 20 μL of Kinase Detection Reagent was added and incubated at 25° C. for 40 minutes. Luciferase activity of each well was measured via luminescence on an Envision plate reader (PerkinElmer).
Least squares curve fittings were performed using a four-parameter variable slope nonlinear regression model. […] IC50 values from multiple experiments were averaged by geometric mean and the standard deviation was calculated.

[2] = system: Jurkat NFκB-luciferase cells; test: Jurkat NFκB-Luciferase Assay; type: cell-based; settings: Homo sapiens; Jurkat NFκB-luciferase cells activated with anti-CD3 antibody (OKT3), 2.5 hrs at 37° C.; geometric mean; read-out: DGK NFKb Luciferase EC50
Summary of the method: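 Jurkat NFκB-luciferase reporter cells at 1 million cells/ml in RPMI with 10% FBS were added to antibody-coated, compound-containing wells. Luciferase activity read by One-Glo Ex luminescence 7 minutes after reagent addition.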

Structure (SMILES) | pIC50 [1] | pEC50 [2]
Cc1nnc2nc(N3CCOCc4c3ccnc4C#CC(C)(C)C(F)(F)F)c3cc(F)ccc3n12 [Example 134, 1-(7-fluoro-1-methyl-[1,2,4]triazolo[4,3-a]quinazolin-5-yl)-6-(4,4,4-trifluoro-3,3-dimethylbut-1-yn-1-yl)-1,2,3,5-tetrahydropyrido[4,3-e][1,4]oxazepane] | 8.01 | 8.09
Cc1nnc2nc(N3CCOCc4c3ccnc4C#CC3(C(F)F)CC3)c3c(F)cccc3n12 [Example 135, 6-((1-(difluoromethyl)cyclopropyl)ethynyl)-1-(6-fluoro-1-methyl-[1,2,4]triazolo[4,3-a]quinazolin-5-yl)-1,2,3,5-tetrahydropyrido[4,3-e][1,4]oxazepine] | 8.26 | 8.22
Cc1nnc2nc(N3CCOCc4c3ccnc4C#CC(C)(C)C(F)F)c3c(F)cccc3n12 [Example 136, 6-(4,4-difluoro-3,3-dimethylbut-1-yn-1-yl)-1-(6-fluoro-1-methyl-[1,2,4]triazolo[4,3-a]quinazolin-5-yl)-1,2,3,5-tetrahydropyrido[4,3-e][1,4]oxazepine] | 7.96 | 7.86
Cc1nnc2nc(N3CCOCc4c3ccnc4C#CC(C)(C)NC(=O)C3(C(F)(F)F)CC3)c3c(F)cccc3n12 [Example 137, N-(4-(1-(6-fluoro-1-methyl-[1,2,4]triazolo[4,3-a]quinazolin-5-yl)-1,2,3,5-tetrahydropyrido[4,3-e][1,4]oxazepin-6-yl)-2-methylbut-3-yn-2-yl)-1-(trifluoromethyl)cyclopropane-1-carboxamide] | 7.75 | 6.98
Cc1nnc2nc(N3CCOCc4c(C#CC(C)(C)NC(=O)c5cn(C)nc5C(F)(F)F)cccc43)c3c(F)cccc3n12 [Example 138, N-(4-(1-(6-fluoro-1-methyl-[1,2,4]triazolo[4,3-a]quinazolin-5-yl)-1,2,3,5-tetrahydrobenzo[e][1,4]oxazepin-6-yl)-2-methylbut-3-yn-2-yl)-1-methyl-3-(trifluoromethyl)-1H-pyrazole-4-carboxamide] | 7.54 | 7.36
Cc1nnc2nc(N3CCOCc4c(C#CC(C)(C)NC(=O)c5cn(C)nc5C(F)F)cccc43)c3c(F)cccc3n12 [Example 139, 3-(difluoromethyl)-N-[3-[1-(6-fluoro-1-methyl-[1,2,4]triazolo[4,3-a]quinazolin-5-yl)-3,5-dihydro-2H-4,1-benzoxazepin-6-yl]-1,1-dimethyl-prop-2-ynyl]-1-methyl-pyrazole-4-carboxamide] | 7.14 | 7.38
Cc1nnc2nc(N3CCOCc4c3ccnc4C#CC(C)(C)C(F)(F)F)c3c(F)cccc3n12 [Example 140, 1-(6-fluoro-1-methyl-[1,2,4]triazolo[4,3-a]quinazolin-5-yl)-6-(4,4,4-trifluoro-3,3-dimethylbut-1-yn-1-yl)-1,2,3,5-tetrahydropyrido[4,3-e][1,4]oxazepine] | 8.35 | 8.36
Cc1nnc2nc(N3CCOCc4c3ccnc4C#CC3(C)CC3)c3c(F)cccc3n12 [Example 141, 1-(6-fluoro-1-methyl-[1,2,4]triazolo[4,3-a]quinazolin-5-yl)-6-((1-methylcyclopropyl)ethynyl)-1,2,3,5-tetrahydropyrido[4,3-e][1,4]oxazepine] | 8.32 | 8.29
Cc1nnc2nc(N3CCOCc4c3ccnc4C#CC3(C(C)(F)F)CC3)c3c(F)cccc3n12 [Example 142, 6-((1-(1,1-difluoroethyl)cyclopropyl)ethynyl)-1-(6-fluoro-1-methyl-[1,2,4]triazolo[4,3-a]quinazolin-5-yl)-1,2,3,5-tetrahydropyrido[4,3-e][1,4]oxazepine] | 7.78 | 8.30
Cc1nnc2nc(N3CCOCc4c3ccnc4C#CC3(C(F)(F)F)CC3)c3c(F)cccc3n12 [Example 143, 1-(6-fluoro-1-methyl-[1,2,4]triazolo[4,3-a]quinazolin-5-yl)-6-((1-(trifluoromethyl)cyclopropyl)ethynyl)-1,2,3,5-tetrahydropyrido[4,3-e][1,4]oxazepine] | 8.41 | 8.44
Cc1nnc2nc(N3CCOCc4c(C#CC(C)(C)NC(=O)C(C)(C)C(F)(F)F)cccc43)c3c(F)cccc3n12 [Example 144, 3,3,3-trifluoro-N-(4-(1-(6-fluoro-1-methyl-[1,2,4]triazolo[4,3-a]quinazolin-5-yl)-1,2,3,5-tetrahydrobenzo[e][1,4]oxazepin-6-yl)-2-methylbut-3-yn-2-yl)-2,2-dimethylpropanamide] | 8.32 | 7.96
Cc1nnc2nc(N3CCOCc4c(C#CC5(NC(=O)C6(C(F)(F)F)CC6)CC5)cccc43)c3c(F)cccc3n12 [Example 145, N-(1-((1-(6-fluoro-1-methyl-[1,2,4]triazolo[4,3-a]quinazolin-5-yl)-1,2,3,5-tetrahydrobenzo[e][1,4]oxazepin-6-yl)ethynyl)cyclopropyl)-1-(trifluoromethyl) cyclopropane-1-carboxamide] | 8.16 | 8.92
Cc1nnc2nc(N3CCOCc4c(C#CC(C)(C)NC(=O)OC(C)C(F)(F)F)cccc43)c3c(F)cccc3n12 (stereo not shown) [Example 146, 1,1,1-trifluoropropan-2-yl (4-(1-(6-fluoro-1-methyl-[1,2,4]triazolo[4,3-a]quinazolin-5-yl)-1,2,3,5-tetrahydrobenzo[e][1,4]oxazepin-6-yl)-2-methylbut-3-yn-2-yl)carbamate] | 8.45 | 7.69
Cc1nnc2nc(N3CCOCc4c(C#CC(C)(C)NC(=O)C5(C(F)(F)F)CC5)cccc43)c3c(F)cccc3n12 [Example 147, N-(4-(1-(6-fluoro-1-methyl-[1,2,4]triazolo[4,3-a]quinazolin-5-yl)-1,2,3,5-tetrahydrobenzo[e][1,4]oxazepin-6-yl)-2-methylbut-3-yn-2-yl)-1-(trifluoromethyl) cyclopropane-1-carboxamide] | 8.50 | 8.11
Cc1nnc2nc(N3CCOCc4c(C#CC(C)(C)NC(=O)OC(C)(C)C)cccc43)c3c(F)cccc3n12 [Example 148, tert-butyl (4-(1-(6-fluoro-1-methyl-[1,2,4]triazolo[4,3-a]quinazolin-5-yl)-1,2,3,5-tetrahydrobenzo[e][1,4]oxazepin-6-yl)-2-methylbut-3-yn-2-yl)carbamate] | 8.36 | 8.22
Cc1nnc2nc(N3CCCc4c(C#CC(C)(C)NC(=O)OC(C)C(F)(F)F)cccc43)c3c(F)cccc3n12 (stereo not shown) [Example 149, 1,1,1-trifluoropropan-2-yl (4-(1-(6-fluoro-1-methyl-[1,2,4]triazolo[4,3-a]quinazolin-5-yl)-1,2,3,4-tetrahydroquinolin-5-yl)-2-methylbut-3-yn-2-yl)carbamate] | 7.85 | 8.27
Cc1nnc2nc(N3CCCc4c(C#CC(C)(C)NC(=O)OC(C)(C)C)cccc43)c3c(F)cccc3n12 [Example 150, Tert-Butyl (4-(1-(6-fluoro-1-methyl-[1,2,4]triazolo[4,3-a]quinazolin-5-yl)-1,2,3,4-tetrahydroquinolin-5-yl)-2-methylbut-3-yn-2-yl)carbamate] | 7.94 | 8.61
